From patent US10570179B2, “Substituted urea depsipeptide analogs as activators of the CLPP endopeptidase” (priority 2016, dated 2020)
Numbered stars: 1 amine (or outer) side, 2 acyl side, 3 side chain; on linkers, the order of the positions; unused ones are H or OH. Bridge positions count the residues as written; N and C are the ends. Square brackets hold non-standard residues; d marks the D form. Peptide text beside a SMILES is read from it. * marks the point of attachment. Piperazine(2S-CO,4-Me) = CN1CCN[C@H](C(=O)O)C1; Phe(3,5-F2) = N[C@@H](Cc1cc(F)cc(F)c1)C(=O)O; NH(1-Me-indolin-5-yl) = CN1CCc2cc(N*)ccc21; X6 = O=C([C@@H]1CS(=O)(=O)CCN1[*:1])[*:2]; Morpholine(3S-CO) = O=C(O)[C@@H]1COCCN1; Phe(3-Me) = Cc1cccc(C[C@H](N)C(=O)O)c1; Pro(4S-Me) = C[C@@H]1CN[C@H](C(=O)O)C1; NH(4-Cl-2-F-phenyl) = Fc1cc(Cl)ccc1N*; Pro(4R-Me) = C[C@H]1CN[C@H](C(=O)O)C1; X1 = O=C([C@@H]1CSCCN1[*:1])[*:2]; Hyp = O=C(O)[C@@H]1C[C@@H](O)CN1; NH(4-Me-phenyl) = Cc1ccc(N*)cc1; aThr = C[C@H](O)[C@H](N)C(=O)O; Pip = O=C(O)[C@@H]1CCCCN1; 4Abz = Nc1ccc(C(=O)O)cc1; CO = O=C([*:1])[*:2]

Experiments:
[1] = Microsomal metabolic stability; format: in vitro ADME, human
Procedure: (§1) Compounds were initially prepared by dissolving them into DMSO at a final concentration of 10 mM. NADPH regenerating solutions A and B and mouse liver microsomes (CD-1) were obtained from BD Gentest (Woburn, Mass.). Ninety-six well deep well plates were obtained from MidWest Scientific Inc (Valley Park, Mo.).
(§2) Sample preparation for microsomal stability was modified from methods of Di, L., et al., Int J Pharm. 2005 Jun. 13; 297(1-2):110-9. A set of incubation times of 0, 15, 30, 60, 120, and 240 minutes were used. Mouse liver microsomal solutions were prepared by adding 58 μL of concentrated human or mouse liver microsomes (20 mg/mL protein concentration) to 1.756 mL of 0.1 M potassium phosphate buffer (pH 7.4) and 5 μL of 0.5 M EDTA to make a 0.6381 mg/mL (protein) microsomal solution. NADPH regenerating agent contained 113 μL of NADPH A, 23 μL of NADPH B, and 315 μL of 0.1 M potassium phosphate buffer (pH 7.4). The diluted test compound solutions (2 μL) were each added directly to a 1.79 mL of liver microsomal solution. This solution was mixed and 90 μL was transferred to 6 time points plates (each in triplicate wells). For the time 0 plate, 225 μL of cold acetonitrile with internal standard ([…] warfarin) was added to each well, followed by addition of NADPH regenerating agent (22.5 μL) and no incubation. For other five time points' plate, NADPH regenerating agent (22.5 μL) was added to each well to initiate the reaction. The plates were incubated at 37° C. for the required time, followed by quenching of the reaction by adding 225 μL of cold acetonitrile with internal standard (4 μg/ml warfarin). All of the plates were sealed and mixed well at 600 rpm for 10 minutes followed by centrifugation at 4000 rpm for 20 minutes. The supernatants (120 μL) were transferred to analytical plates for analysis by LCMS. LCMS conditions were described in the materials and instrumentation section above. The metabolic stability is evaluated via the half-life from least-squares fit of the multiple time points based on first-order kinetics.

Plasma stability assay [2] = format: in vitro ADME, mouse
Procedure: (§3) The plasma stability property of early drug discovery compounds can influence the in vivo efficacy of the test compounds/drugs. Human and/or mouse plasma degradation is determined using multiple time points to monitor the rate of disappearance of the parent compound during incubation.
(§4) Sample preparation for plasma stability was modified from Di et al. (2005) Int. J. Pharm. 297(1-2): 110-119. A set of incubation times of 0, 3, 24, and 48 hour were used. DMSO stock solutions of test compounds were prepared at 10 mM concentration. 1.8 μL of each test compound was each added directly to 1.8 mL of human/mouse plasma to get the final concentration of 10 μM. This compound/matrix was mixed and 70 μL was transferred to 8 time points plates (each in triplicate wells). For the Time 0 plate, 210 μL of cold acetonitrile with internal standard (4 μg/mL warfarin) was added to each well and no incubation needed. For other seven time points' plate, the plate was incubated at 37° C. for required time, followed by quenching of the reaction by adding 210 μL of cold acetonitrile with internal standard (4 μg/ml warfarin) to each well. All of the plates were sealed and mixed well at 600 rpm for 10 min and were centrifuged at 4000 rpm for 20 min. The supernatants (120 μL) were transferred to analytical plates for analysis by LCMS. Conditions for Waters ACQUITY-UPLC-MS-UV system was described separately. The plasma stability was evaluated via the half-life from least-squares fit of the multiple time points based on first-order kinetics.

Plasma stability assay [3] = format: in vitro ADME, human
Procedure: as §3, §4

[4] = Microsomal metabolic stability; format: in vitro ADME, mouse
Procedure: as §1, §2

[5] = microsomal metabolic stability half-life, human liver microsomes
[6] = plasma stability half-life, mouse plasma, 37° C.
[7] = plasma stability half-life, human plasma, 37° C.
[8] = microsomal metabolic stability half-life, mouse liver microsomes

Row | SMILES | Human [1, 5] | Mouse (Plasma stability assay [2]; [6]) | Human (Plasma stability assay [3]; [7]) | Mouse [4, 8] | Human ([1]; human, pH 7.4) | Mouse (Plasma stability assay [2]; mouse, 10 μM) | Human (Plasma stability assay [3]; human, 10 μM) | Mouse ([4]; CD-1, mouse, pH 7.4) | Mouse (hr) (Plasma stability assay [2]; [6]) | Human (hr) (Plasma stability assay [3]; [7])
1 | Cc1ccc(NC(=O)N[C@@H](Cc2cccc(C)c2)C(=O)N[C@H]2COC(=O)[C@@H]3CCCN3C(=O)[C@H](C)NC(=O)[C@@H]3CCCCN3C(=O)[C@@H]3C[C@@H](O)CN3C2=O)cc1 [Compound 49, (S)—N-((6S,8AS,14AS,16R,20S,23AS)-16-HYDROXY-6-METHYL-5,8,14,19,23-PENTAOXOOCTADECAHYDRO-1H,5H,14H,19H-PYRIDO[2,1-I]DIPYRROLO[2,1-C:2′,1′-L][1]OXA[4,7,10,13]TETRAAZACYCLOHEXADECIN-20-YL)-3-(M-TOLYL)-2-(3-(P-TOLYL)UREIDO)PROPANAMIDE] | 0.81 ± .813 h | 22.75 h | 29.79 h | 4.37 ± .373 h | – | – | – | – | – | –
2 | Cc1ccc(NC(=O)N[C@@H](Cc2cccc(C)c2)C(=O)N[C@H]2COC(=O)[C@@H]3C[C@H](C)CN3C(=O)[C@H](C)NC(=O)[C@@H]3CCCCN3C(=O)[C@@H]3CCCN3C2=O)cc1 (stereo in doubt) [Compound 43, (S)—N-((2S,6S,8AS,14AS,20S,23AS)-2,6-DIMETHYL-5,8,14,19,23-PENTAOXOOCTADECAHYDRO-1H,5H,14H,19H-PYRIDO[2,1-I]DIPYRROLO[2,1-C:2′,1′-L][1]OXA[4,7,10,13]TETRAAZACYCLOHEXADECIN-20-YL)-3-(M-TOLYL)-2-(3-(P-TOLYL)UREIDO)PROPANAMIDE] | 1.36 ± 0.14 h | 21.9 h | >50 h | 3.57 ± 0.3 h | – | – | – | – | – | –
3 | Cc1cccc(C[C@H](NC(=O)Nc2ccc(Cl)cc2F)C(=O)N[C@@H]2C(=O)N3CCC[C@H]3C(=O)N3CCS(=O)(=O)C[C@H]3C(=O)N[C@@H](C)C(=O)N3C[C@H](C)C[C@H]3C(=O)O[C@H]2C)c1 [Compound 40, (S)-2-(3-(4-CHLORO-2-FLUOROPHENYL)UREIDO)-3-(M-TOLYL)-N-((6AS,12S,13S,15AS,17R,21S,23AR)-13,17,21-TRIMETHYL-2,2-DIOXIDO-6,11,15,20,23-PENTAOXOOCTADECAHYDRO-6H,11H,15H-DIPYRROLO[2,1-C:2′,1′-L][1,4]THIAZINO[3,4-I][1]OXA[4,7,10,13]TETRAAZACYCLOHEXADECIN-12-YL)PROPANAMIDE] ({NH(4-Cl-2-F-phenyl)-CO}-[Phe(3-Me)][aThr]P[X6]A[Pro(4R-Me)]; ester 2-C) | – | – | – | – | 0.62 ± .623 h | >50 h | >50 h | 6.54 ± .543 h | – | –
4 | Cc1ccc(NC(=O)N[C@@H](Cc2cccc(C)c2)C(=O)N[C@@H]2C(=O)N3C[C@H](O)C[C@H]3C(=O)N3CCSC[C@H]3C(=O)N[C@@H](C)C(=O)N3C[C@H](C)C[C@H]3C(=O)O[C@H]2C)cc1 [Compound 42, (S)—N-((6AS,8R,12S,13S,15AS,17R,21S,23AR)-8-HYDROXY-13,17,21-TRIMETHYL-6,11,15,20,23-PENTAOXOOCTADECAHYDRO-6H,11H,15H-DIPYRROLO[2,1-C:2′,1′-L][1,4]THIAZINO[3,4-I][1]OXA[4,7,10,13]TETRAAZACYCLOHEXADECIN-12-YL)-3-(M-TOLYL)-2-(3-(P-TOLYL)UREIDO)PROPANAMIDE] ({NH(4-Me-phenyl)-CO}-[Phe(3-Me)][aThr][Hyp][X1]A[Pro(4R-Me)]; ester 2-C) | 0.81 ± .813 h | >50 h | >50 h | 0.78 ± .783 h | – | – | – | – | – | –
5 | CCOC(=O)c1ccc(NC(=O)N[C@@H](Cc2cccc(C)c2)C(=O)N[C@@H]2C(=O)N3C[C@H](O)C[C@H]3C(=O)N3CCCC[C@H]3C(=O)N[C@@H](C)C(=O)N3C[C@H](C)C[C@H]3C(=O)O[C@H]2C)cc1 [Compound 36, ETHYL 4-(3-((S)-1-(((2R,6S,8AS,14AS,16R,20S,21S,23AS)-16-HYDROXY-2,6,21-TRIMETHYL-5,8,14,19,23-PENTAOXOOCTADECAHYDRO-1H,5H,14H,19H-PYRIDO[2,1-I]DIPYRROLO[2,1-C:2′,1′-L][1]OXA[4,7,10,13]TETRAAZACYCLOHEXADECIN-20-YL)AMINO)-1-OXO-3-(M-TOLYL)PROPAN-2-YL)UREIDO)BENZOATE] ({OEt-4Abz-CO}-[Phe(3-Me)][aThr][Hyp][Pip]A[Pro(4R-Me)]; ester 2-C) | 4.81 ± .815 h | 0.30 h | 57.50 h | 11.23 ± 1.23 h | – | – | – | – | – | –
6 | Cc1cccc(C[C@H](NC(=O)Nc2ccc(Cl)cc2F)C(=O)N[C@@H]2C(=O)N3C[C@H](O)C[C@H]3C(=O)N3CCSC[C@H]3C(=O)N[C@@H](C)C(=O)N3C[C@H](C)C[C@H]3C(=O)O[C@H]2C)c1 [Compound 41, (S)-2-(3-(4-CHLORO-2-FLUOROPHENYL)UREIDO)-N-((6AS,8R,12S,13S,15AS,17R,21S,23AR)-8-HYDROXY-13,17,21-TRIMETHYL-6,11,15,20,23-PENTAOXOOCTADECAHYDRO-6H,11H,15H-DIPYRROLO[2,1-C:2′,1′-L][1,4]THIAZINO[3,4-I][1]OXA[4,7,10,13]TETRAAZACYCLOHEXADECIN-12-YL)-3-(M-TOLYL)PROPANAMIDE] ({NH(4-Cl-2-F-phenyl)-CO}-[Phe(3-Me)][aThr][Hyp][X1]A[Pro(4R-Me)]; ester 2-C) | – | – | – | – | 0.41 ± .413 h | >50 h | >50 h | 0.11 ± .113 h | – | –
7 | C[C@@H]1C[C@H]2C(=O)O[C@@H](C)[C@H](NC(=O)[C@H](Cc3cc(F)cc(F)c3)NC(=O)Nc3ccc4c(c3)CCN4C)C(=O)N3CCC[C@H]3C(=O)N3CCOC[C@H]3C(=O)N[C@@H](C)C(=O)N2C1 [Compound 32] ({NH(1-Me-indolin-5-yl)-CO}-[Phe(3,5-F2)][aThr]P[Morpholine(3S-CO)]A[Pro(4R-Me)]; ester 2-C) | 2.66 ± .66 h | – | – | 0.95 ± .95 h | – | – | – | – | >>48 hr | >>48 hr
8 | Cc1ccc(NC(=O)N[C@@H](Cc2cccc(C)c2)C(=O)N[C@@H]2C(=O)N3CCC[C@H]3C(=O)N3CCCC[C@H]3C(=O)N[C@@H](C)C(=O)N3C[C@@H](C)C[C@H]3C(=O)O[C@H]2C)cc1 [Compound 45, (S)-3-(M-TOLYL)-2-(3-(P-TOLYL)UREIDO)-N-((2S,6S,8AS,14AS,20S,21S,23AS)-2,6,21-TRIMETHYL-5,8,14,19,23-PENTAOXOOCTADECAHYDRO-1H,5H,14H,19H-PYRIDO[2,1-I]DIPYRROLO[2,1-C:2′,1′-L][1]OXA[4,7,10,13]TETRAAZACYCLOHEXADECIN-20-YL)PROPANAMIDE] ({NH(4-Me-phenyl)-CO}-[Phe(3-Me)][aThr]P[Pip]A[Pro(4S-Me)]; ester 2-C) | 2.77 ± 0.3 h | >50 h | >50 h | 2.35 ± 0.14 h | – | – | – | – | – | –
9 | C[C@@H]1C[C@H]2C(=O)OC[C@H](NC(=O)[C@H](Cc3cc(F)cc(F)c3)NC(=O)Nc3ccc(Cl)cc3F)C(=O)N3CCC[C@H]3C(=O)N3CCN(C)C[C@H]3C(=O)N[C@@H](C)C(=O)N2C1 [Compound 34] ({NH(4-Cl-2-F-phenyl)-CO}-[Phe(3,5-F2)]SP[Piperazine(2S-CO,4-Me)]A[Pro(4R-Me)]; ester 2-C) | – | – | – | – | 0.77 ± .775 h | 21.18 h | 26.56 h | 1.18 ± .185 h | – | –
